In patent publication US20250332264A1, “GhR-BINDING PEPTIDE AND COMPOSITION COMPRISING SAME” (priority 2021, published 2025):
Starred links: 1 amine or outer side, 2 acyl side, 3 side chain; linkers in the order of their positions; H or OH if unused. Positions of bridges follow the written chain, without caps; N, C: chain ends. Non-standard residues stand in square brackets, D forms with d. Residues, ends and D or L forms follow the SMILES beside them. Groups on a side chain read outwards from the residue. *: point of attachment. X13 = NC(=O)[C@H](CCCCN*)NC(=O)COCCOCCNC(=O)COCCOCCNC(=O)CC[C@H](NC(=O)CC[C@H](NC(=O)CCCCCCCCCCCCC(=O)O)C(=O)O)C(=O)O; X3 = NC(=O)[C@H](CCCCN*)NC(=O)CC[C@H](NC(=O)CC[C@H](NC(=O)CCCCCCCCCCCCCCC(=O)O)C(=O)O)C(=O)O; X10 = NC(=O)[C@H](CCCCN*)NC(=O)CC[C@H](NC(=O)CC[C@H](NC(=O)CCCc1ccc(I)cc1)C(=O)O)C(=O)O; Trp(1-CH2CO) = O=C([C@H](Cc1cn(CC(=O)[*:3])c2ccccc12)N[*:1])[*:2]; Trp(5-OMe) = COc1ccc2[nH]cc(C[C@H](N)C(=O)O)c2c1; Butanoyl(4-(4-I-phenyl)) = O=C(CCCc1ccc(I)cc1)*; Trp(5-OH) = N[C@@H](Cc1c[nH]c2ccc(O)cc12)C(=O)O; Phe(4-COOH) = N[C@@H](Cc1ccc(C(=O)O)cc1)C(=O)O; Piperazinyl(4-CH2COOH) = O=C(O)CN1CCN(*)CC1; X7 = O=C(O)CN1CCC(N[*:1])(C(=O)[*:2])CC1; γGlu = O=C(O)[C@H](CCC(=O)[*:2])N[*:1]; Aad = N[C@@H](CCCC(=O)O)C(=O)O; NMeK = CN[C@@H](CCCCN)C(=O)O; Aib = CC(C)(N)C(=O)O; CO = O=C([*:1])[*:2]

These molecules were tested against T1, Recombinant human GhR-Fc protein (Homo sapiens, UniProt P10912) (assay: Binding activity of hGhR binding peptide by surface plasmon resonance (SPR), Biacore T200, single-cycle kinetics). Conditions: human GhR-Fc immobilized on CM5 chip, KD calculated from ka and kd.
T1 construct: purchased R&D Systems
T1 sequence (P10912 with tags, fused parts or gaps limits assumed): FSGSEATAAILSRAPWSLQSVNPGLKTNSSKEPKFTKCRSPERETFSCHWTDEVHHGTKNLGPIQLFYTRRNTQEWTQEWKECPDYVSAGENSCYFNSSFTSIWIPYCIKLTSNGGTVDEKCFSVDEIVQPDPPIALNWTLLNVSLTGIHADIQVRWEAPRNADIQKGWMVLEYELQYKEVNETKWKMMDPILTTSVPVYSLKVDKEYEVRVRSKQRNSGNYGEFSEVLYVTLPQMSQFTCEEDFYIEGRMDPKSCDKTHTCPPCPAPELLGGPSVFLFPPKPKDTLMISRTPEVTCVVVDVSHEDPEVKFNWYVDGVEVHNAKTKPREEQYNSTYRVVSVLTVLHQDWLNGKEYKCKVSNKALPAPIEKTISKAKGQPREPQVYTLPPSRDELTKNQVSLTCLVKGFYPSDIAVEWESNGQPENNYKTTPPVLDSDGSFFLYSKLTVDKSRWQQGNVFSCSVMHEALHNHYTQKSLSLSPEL
Description: SPR assay was performed using Biacore T200 (cytiva: Former GE Healthcare). After the equilibration of Series S Sensor Chip CM5 (produced by cytiva: Former GE Healthcare) with Running Buffer (HBS-EP with 1% (v/v) DMSO), an EDC/NHS mixture was injected at a flow rate of 10 μL/min for 7 minutes to thereby activate the functional groups on sensor chip. Recombinant human GhR-Fc protein (R&D Systems) in 10 mM Acetate (pH4.0) was injected immobilized to at a flow rate of 5 μL/min. It took 7 minutes to immobilize the GhR on the substrate surfaces of the sensor chip. Then Ethanolamine was injected at a flow rate of 10 μL/min for 7 minutes. 1M Ethanolamine (aq.) was injected at a flow rate of 10 μL/min for 420 seconds for capping.
Using these Peptide Samples, kinetics of peptides against human GhR-Fc protein were measured. The method adopted for sample measurement was a single-cycle kinetics method. The analysis was conducted using the evaluation software provided with Biacore T200. A DMSO correction curve obtained by solvent correction measurements was applied for the analysis. Kinetics fitting was done on the difference data obtained by subtracting the baseline data from sample measurement data. KD values were calculated based on the association rate constant (ka) and dissociation rate constant (kd).
Furthermore, “obs. m/z [M+2H]2+” indicates the ESI-MS(+) observed value. Unless otherwise specified, this is bivalent ([M+2H]^2+).
`COc1ccc2[nH]cc(C[C@@H]3NC(=O)[C@H](CC(N)=O)NC(=O)[C@H](CO)NC(=O)[C@H](C(C)C)NC(=O)[C@H](C(C)C)NC(=O)[C@H](CCCCNC(=O)CC[C@H](NC(=O)CCCc4ccc(I)cc4)C(=O)O)N(C)C(=O)[C@H](Cc4ccc(O)cc4)NC(=O)CSC[C@@H](C(=O)NCC(=O)N4CCC[C@H]4C(=O)N[C@H](CO)C(=O)N[C@H](CO)C(=O)N[C@H](CO)C(N)=O)NC(=O)[C@H](C(C)C)NC(=O)C(C)(C)NC(=O)[C@H](Cc4c[nH]c5ccc(O)cc45)NC(=O)[C@H](CCCCN)NC(=O)[C@H](Cc4ccc(O)cc4)NC3=O)c2c1` [Compound 46] ({CH2CO}-Y[NMeK]([γGlu-Butanoyl(4-(4-I-phenyl))])VVSN[Trp(5-OMe)]YK[Trp(5-OH)][Aib]VCGP[dS][dS][dS]-NH2; thioether N-13) gave a Kd of 1.07 nM. With `CC(C)[C@@H]1NC(=O)[C@H](C(C)C)NC(=O)[C@@H]2CCCCNC(=O)Cn3cc(c4ccccc43)C[C@H](NC(=O)[C@H](CC(N)=O)NC(=O)[C@H](CO)NC1=O)C(=O)N[C@@H](Cc1ccc(C(=O)O)cc1)C(=O)N[C@@H](CCCC(N)=O)C(=O)N[C@@H](Cc1c[nH]c3ccc(O)cc13)C(=O)NC(C)(C)C(=O)N[C@@H](C(C)C)C(=O)N[C@H](C(=O)NCCCC[C@H](NC(=O)CC[C@H](NC(=O)CC[C@H](NC(=O)CCCc1ccc(I)cc1)C(=O)O)C(=O)O)C(N)=O)CSCC(=O)N[C@@H](Cc1ccc(C(=O)O)cc1)C(=O)N2C` [Compound 5] ({CH2CO}-[Phe(4-COOH)][NMeK]VVSN[Trp(1-CH2CO)][Phe(4-COOH)][Aad](NH2)[Trp(5-OH)][Aib]VC-X10; lactam 2-7; thioether N-13) the Kd was 3.07 nM. Work on `CC(C)[C@@H]1NC(=O)[C@H](C(C)C)NC(=O)[C@@H]2CCCCNC(=O)Cn3cc(c4ccccc43)C[C@H](NC(=O)[C@H](CC(N)=O)NC(=O)[C@H](CO)NC1=O)C(=O)N[C@@H](Cc1ccc(O)cc1)C(=O)N[C@@H](CCCCNC(=O)N1CCN(CC(=O)O)CC1)C(=O)N[C@@H](Cc1c[nH]c3ccc(O)cc13)C(=O)NC(C)(C)C(=O)N[C@@H](C(C)C)C(=O)N[C@H](C(=O)NCC(=O)N1CCC[C@H]1C(=O)N[C@H](CO)C(=O)N[C@H](CO)C(=O)N[C@H](CO)C(=O)NCCCC[C@H](NC(=O)CC[C@H](NC(=O)CC[C@H](NC(=O)CCCCCCCCCCCCCCC(=O)O)C(=O)O)C(=O)O)C(N)=O)CSCC(=O)N[C@@H](Cc1ccc(O)cc1)C(=O)N2C` [Compound 28] ({CH2CO}-Y[NMeK]VVSN[Trp(1-CH2CO)]YK([CO-Piperazinyl(4-CH2COOH)])[Trp(5-OH)][Aib]VCGP[dS][dS][dS]-X3; lactam 2-7; thioether N-13) yielded a Kd of 2.71 nM. With `CC(C)[C@@H]1NC(=O)[C@H](C(C)C)NC(=O)[C@@H]2CCCCNC(=O)Cn3cc(c4ccccc43)C[C@H](NC(=O)[C@H](CC(N)=O)NC(=O)[C@H](CO)NC1=O)C(=O)N[C@@H](Cc1ccc(C(=O)O)cc1)C(=O)N[C@@H](CCCCN)C(=O)N[C@@H](Cc1c[nH]c3ccc(O)cc13)C(=O)NC1(CCN(CC(=O)O)CC1)C(=O)N[C@@H](C(C)C)C(=O)N[C@H](C(=O)NCCCC[C@H](NC(=O)CC[C@H](NC(=O)CC[C@H](NC(=O)CCCc1ccc(I)cc1)C(=O)O)C(=O)O)C(N)=O)CSCC(=O)N[C@@H](Cc1ccc(C(=O)O)cc1)C(=O)N2C` [Compound 8] ({CH2CO}-[Phe(4-COOH)][NMeK]VVSN[Trp(1-CH2CO)][Phe(4-COOH)]K[Trp(5-OH)][X7]VC-X10; lactam 2-7; thioether N-13) the Kd was 2.08 nM. `COc1ccc2[nH]cc(C[C@@H]3NC(=O)[C@H](CC(N)=O)NC(=O)[C@H](CO)NC(=O)[C@H](C(C)C)NC(=O)[C@H](C(C)C)NC(=O)[C@H](CCCCNC(=O)CC[C@H](NC(=O)CC[C@H](NC(=O)CCCc4ccc(I)cc4)C(=O)O)C(=O)O)N(C)C(=O)[C@H](Cc4ccc(O)cc4)NC(=O)CSC[C@@H](C(=O)NCC(=O)N4CCC[C@H]4C(=O)N[C@H](CO)C(=O)N[C@H](CO)C(=O)N[C@H](CO)C(N)=O)NC(=O)[C@H](C(C)C)NC(=O)C4(CCN(CC(=O)O)CC4)NC(=O)[C@H](Cc4c[nH]c5ccc(O)cc45)NC(=O)[C@H](CCCCN)NC(=O)[C@H](Cc4ccc(C(=O)O)cc4)NC3=O)c2c1` [Compound 52] ({CH2CO}-Y[NMeK]([γGlu-γGlu-Butanoyl(4-(4-I-phenyl))])VVSN[Trp(5-OMe)][Phe(4-COOH)]K[Trp(5-OH)][X7]VCGP[dS][dS][dS]-NH2; thioether N-13) was tested, and the Kd was 5.47 nM. `CC(C)[C@@H]1NC(=O)[C@H](C(C)C)NC(=O)[C@@H]2CCCCNC(=O)Cn3cc(c4ccccc43)C[C@H](NC(=O)[C@H](CC(N)=O)NC(=O)[C@H](CO)NC1=O)C(=O)N[C@@H](Cc1ccc(C(=O)O)cc1)C(=O)N[C@@H](CCCCN)C(=O)N[C@@H](Cc1c[nH]c3ccc(O)cc13)C(=O)NC(C)(C)C(=O)N[C@@H](C(C)C)C(=O)N[C@H](C(=O)NCCCC[C@H](NC(=O)CC[C@H](NC(=O)CC[C@H](NC(=O)CCCc1ccc(I)cc1)C(=O)O)C(=O)O)C(N)=O)CSCC(=O)N[C@@H](Cc1ccc(C(=O)O)cc1)C(=O)N2C` [Compound 9] ({CH2CO}-[Phe(4-COOH)][NMeK]VVSN[Trp(1-CH2CO)][Phe(4-COOH)]K[Trp(5-OH)][Aib]VC-X10; lactam 2-7; thioether N-13) gave a Kd of 1.46 nM. For `CC(C)[C@@H]1NC(=O)[C@H](C(C)C)NC(=O)[C@@H]2CCCCNC(=O)Cn3cc(c4ccccc43)C[C@H](NC(=O)[C@H](CC(N)=O)NC(=O)[C@H](CO)NC1=O)C(=O)N[C@@H](Cc1ccc(C(=O)O)cc1)C(=O)N[C@@H](CCCCNC(=O)N1CCN(CC(=O)O)CC1)C(=O)N[C@@H](Cc1c[nH]c3ccc(O)cc13)C(=O)NC(C)(C)C(=O)N[C@@H](C(C)C)C(=O)N[C@H](C(=O)NCCCC[C@H](NC(=O)CC[C@H](NC(=O)CC[C@H](NC(=O)CCCCCCCCCCCCCCC(=O)O)C(=O)O)C(=O)O)C(N)=O)CSCC(=O)N[C@@H](Cc1ccc(O)cc1)C(=O)N2C` [Compound 22] ({CH2CO}-Y[NMeK]VVSN[Trp(1-CH2CO)][Phe(4-COOH)]K([CO-Piperazinyl(4-CH2COOH)])[Trp(5-OH)][Aib]VC-X3; lactam 2-7; thioether N-13), the Kd was 11.2 nM. `CC(C)[C@@H]1NC(=O)[C@H](C(C)C)NC(=O)[C@@H]2CCCCNC(=O)Cn3cc(c4ccccc43)C[C@H](NC(=O)[C@H](CC(N)=O)NC(=O)[C@H](CO)NC1=O)C(=O)N[C@@H](Cc1ccc(C(=O)O)cc1)C(=O)N[C@@H](CCCCN)C(=O)N[C@@H](Cc1c[nH]c3ccc(O)cc13)C(=O)NC(C)(C)C(=O)N[C@@H](C(C)C)C(=O)N[C@H](C(=O)NCCCC[C@H](NC(=O)COCCOCCNC(=O)COCCOCCNC(=O)CC[C@H](NC(=O)CC[C@H](NC(=O)CCCCCCCCCCCCC(=O)O)C(=O)O)C(=O)O)C(N)=O)CSCC(=O)N[C@@H](Cc1ccc(C(=O)O)cc1)C(=O)N2C` [Compound 62] ({CH2CO}-[Phe(4-COOH)][NMeK]VVSN[Trp(1-CH2CO)][Phe(4-COOH)]K[Trp(5-OH)][Aib]VC-X13; lactam 2-7; thioether N-13) was tested, and the Kd was 3.88 nM.
